Source: patent publication US11591342B2, “Heterocyclic compound, application thereof and pharmaceutical composition comprising same” (SUZHOU SINOVENT PHARMACEUTICALS CO., LTD., priority 2018, dated 2023)

What was measured:
[1] = system: LPA18:2 in mouse plasma; experiment: Inhibition of LPA in mouse plasma (plasma LPA18:2 assay, LC-MS/MS); assay type: biochemical, CD1 mice; conditions: fresh CD1 mouse plasma, LPA18:2, 37° C. for 120 min
Description: Effect Example 2. Inhibition of LPA in Mouse Plasma by Compounds
20 mM stock solutions of the compounds were prepared with DMSO and then diluted to 1 mM, which was subjected to a serial 3-fold dilution to yield 10 working solutions.
Collection of Fresh Mouse Plasma:
CD1 mice were euthanized by CO2 inhalation. Approximately 1 mL of whole blood was taken by cardiac puncture, with EDTA-K2 for anticoagulation. The blood was centrifuged at 3220 g for 10 min at 4° C. for plasma collection.
Reactions were performed in a 96-well plate, and the samples were tested in duplicate. 1 μL of each working solution was added to 100 μL of plasma, with the final concentrations of […]. 1 μL of DMSO was added to plasma to serve as blank. The samples were incubated in a water bath at 37° C. for 120 min, and 600 μL of 10 μM tolbutamide in methanol was added to terminate the reaction. Tolbutamide also served as an internal standard. After 5 min of vortex mixing, the samples were centrifuged at 3220 g for 45 min at 4° C. to precipitate the protein. 100 μL of the supernatant was transferred to a new plate, diluted with water based on LC-MS response and peak shapes, mixed well and analyzed by LC-MS/MS.
LPA18:2 was quantified using peak area ratio (LPA18:2/internal standard), requiring no standard curve. For test compounds of different concentrations, LPA data was represented by a percentage decrease of LPA: 100-[((LPA peak area ratio of compound)/(LPA peak area ratio of control))×100]. IC50 was calculated using Graphpad Prism 6.0 software.

[2] = target: Autotaxin (ATX) (Homo sapiens (Human), UniProt Q13822); experiment: ATX bioactivity assay (Amplex Red / choline oxidase / HRP fluorescence, LPC 16:0 substrate); assay type: biochemical; conditions: 30 min room temperature
Description: Effect Example 1 Bioactivity Assay
Preparation and Treatment
Stock Solution Preparation
A 10 mM DMSO stock solution was formulated for each compound. A 30 mM DMSO stock solution was formulated for positive control HA130.
The DMSO stock solutions were stored at room temperature in a desiccator for a short period of time or at −20° C. for a long period of time.
All compounds were serially 3-fold diluted in DMSO from 10 μM to the 10th concentration.
A 1000× positive control (10 mM, HA130) and a 1000× negative control (100% DMSO) were prepared.
The plates were shaken for 5 min.
Preparation of 1× Reaction Buffer:
5× reaction buffer and cold water were mixed well in a volume ratio of 1:4.
Preparation of 20 U/mL Choline Oxidase Stock Solution:
1 tube of choline oxide in a kit was dissolved in 1× reaction buffer. The aliquots were frozen at −20° C.
Preparation of 200 U/mL Horseradish Peroxidase (HRP) Stock Solution:
1 tube of HRP in a kit was dissolved in 1 mL of 1× reaction buffer. The aliquots were frozen at −20° C.
Preparation of 20 mM Amplex® Red Reagent (for Detection) Stock Solution
Amplex Red reagent and DMSO were equilibrated at room temperature. 1 tube of Amplex Red reagent in a kit was dissolved in 200 μL of DMSO.
a) 2×ATX ([…]), 2×HRP ([…]), 2× choline oxidase (0.2 U/mL) were added to 1× reaction buffer.
b) 20 μL of the reaction mixture was added to the plate (PE, 6007270) (refer to step a).
c) 40 nL of diluent was added to the plate using Echo (refer to “Preparation”).
d) 2×LPC (16:0) (60 mM) and 2× Amplex® Red ([…]) were prepared using 1× reaction buffer.
e) 20 μL of the mixture was added to the plate (refer to step d).
f) The plate was shaken for 30 s and allowed to stand at room temperature for 30 min.
g) The plate was examined using Envision, and the procedure was as follows: Excitation at 530 nm; and Emission at 590 nm.
Formula for Calculating % Inhibition (Percent Inhibition Rate) as Follows:
FLU: Fluorescence (fluorescence reading)
FLUpositive: Average fluorescence value in positive control wells (10 μM HA130) in the plate.
FLUvehicle: Average fluorescence value in negative control wells (0.1% DMSO) in the plate.
Calculation of IC50 and Dose-Response Curve:
IC50 of the compounds was calculated via a non-linear regression line (dose-variable slope) fitted using % inhibition and log of compound concentration. The software used was Graphpad 5.0. Y=Bottom+(Top−Bottom)/(1+10^((Log IC50−X)×Hill Slope))
X: log of inhibitor concentration

[3] = target: CYP3A4 (Homo sapiens (Human), UniProt P08684); experiment: Time-dependent inhibition of CYP3A4 (TDI assay, human liver microsomes); assay type: in vitro ADME; conditions: for CYP3A4 TDI % @ 10 μM: human liver microsomes, Midazolam substrate, 30 min with NADPH vs 0 min; for time-dependent inhibition on CYP3A4 (conclusion): conclusion drawn from Table 3, 10 μM
Chain of CYP3A4 (P08684 whole entry): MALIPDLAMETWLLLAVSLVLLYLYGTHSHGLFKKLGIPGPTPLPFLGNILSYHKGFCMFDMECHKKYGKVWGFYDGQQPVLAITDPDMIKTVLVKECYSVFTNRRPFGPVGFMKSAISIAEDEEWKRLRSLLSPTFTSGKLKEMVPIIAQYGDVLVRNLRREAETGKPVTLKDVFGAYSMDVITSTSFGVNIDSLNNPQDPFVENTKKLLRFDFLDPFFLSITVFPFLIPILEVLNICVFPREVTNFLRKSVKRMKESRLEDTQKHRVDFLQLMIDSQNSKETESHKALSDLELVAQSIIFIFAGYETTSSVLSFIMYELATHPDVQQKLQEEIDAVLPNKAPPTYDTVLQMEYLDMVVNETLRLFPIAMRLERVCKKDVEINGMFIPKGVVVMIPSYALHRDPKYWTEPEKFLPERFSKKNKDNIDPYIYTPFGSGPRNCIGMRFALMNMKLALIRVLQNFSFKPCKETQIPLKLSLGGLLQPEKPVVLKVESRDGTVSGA
Description: Effect Example 3. Time-Dependent Inhibition of CYP3A4
1. Preheating potassium phosphate buffer (K-buffer), pH 7.4: 100 mM potassium phosphate buffer (K-buffer) was prepared by mixing 9.5 mL of solution A with 40.5 mL of solution B, diluting to 500 mL with ultrapure water, and then adjusting to pH 7.4 with KOH or H3PO4, wherein the solution A (1M potassium dihydrogenphosphate) was prepared by dissolving 136.5 g of potassium dihydrogenphosphate in […] of ultrapure water.
2. Preparation of human liver microsome suspension (1.3 mg/mL, 1.3×, stock: 20 mg/mL): 100 μL of human liver microsome suspension (20 mg/mL) was added into […] of K-buffer.
3. Preparation of NADPH solution (4.167 mg/mL, 5 mM): 8.3 mg of NADPH was added into 2 mL of buffer.
4. Preparation of substrate solution (1.5× final): 1.5 μL of 10 mM Midazolam was added to 998.5 μL of K-buffer to yield the substrate mixture.
5. Preparation of 100× test compound, reference and blank control solutions: 3 μL of 10 mM stock solution of test compound was added to 27 μL of ACN; 3 μL of positive control stock solution was added to 27 μL of ACN; and 3 μL of DMSO was added to 27 μL of ACN to serve as blank control.
6. Primary preheating system: An NADPH-free system for 0 min incubation: 78 μL of 1.3× human liver microsome solution (step 2) was mixed with 1 μL of the 100× stock solutions of positive control, test compound, or blank control (step 5); A system containing NADPH for 30 min incubation: 78 μL of 1.3× human liver microsome solution (step 2) was mixed with 1 μL of the 100× stock solutions of positive control, test compound, or blank control (step 5).
7. Secondary preheating system: 150 μL of the substrate solution prepared in step 4 was added into a deep well plate together with the NADPH solution from step 3
8. The samples were preheated for 10 min in a 37° C. water bath.
9. Reaction procedure: (1) reaction for 0 min: 21 μL of K-buffer was added to the primary preheating system and mixed well without incubation; 20 μL of the mixture was immediately transferred into the plate of the secondary preheating system; after mixing, the secondary system was incubated in a 37° C. water bath for 15 min, and 60 μL of the reaction mixture was added into 120 μL of acetonitrile containing internal standard to terminate the reaction; and (2) reaction for 30 min: 21 μL of NADPH was added into the primary preheating system for a 30-min incubation after mixing; 20 μL of the mixture was added into the secondary preheating system prior to mixing; the mixture was incubated in a 37° C. water bath for 15 min, and 60 μL of the reaction mixture was added into 120 μL of acetonitrile containing internal standard to terminate the reaction.
10. After termination, the samples were shaken on a shaker at 600 rpm for 10 min and centrifuged at 5594 g for 15 min prior to LC-MS/MS analysis.

In the case of `CCN(c1nc(-c2ccc(F)cc2)cs1)c1c2cc(N3CCN(CC(=O)N4CC(O)C4)CC3)cc(F)c2nn1CC` [Compound S-0149, 2-(4-(2-ethyl-3-(ethyl(4-(4-fluorophenyl)thiazol-2-yl)amino)-7-fluoro-2H-indazol-5-yl)piperazin-1-yl)-1-(3-hydroxyazetidin-1-yl)ethanone], the IC50 [1] is reported as 160 nM.

For `CCn1nc2c(F)cc(N3CCN(CC(=O)N4CC(O)C4)CC3)cc2c1N(C)c1nc(-c2ccc(F)c(F)c2)c(C#N)s1` [Compound S-0027, 4-(3,4-difluorophenyl)-2-((2-ethyl-7-fluoro-5-(4-(2-(3-hydroxyazetidin-1-yl)-2-oxoethyl)piperazin-1-yl)-2H-indazol-3-yl)(methyl)amino) thiazole-5-carbonitrile], the IC50 [2] was 165 nM, the “CYP3A4 TDI % @ 10 μM” value [3] was 42.12% and the “time-dependent inhibition on CYP3A4 (conclusion)” value (from here on “time-dependent inhibition”) [3] was “weak time-dependent inhibition on CYP3A4”.

In the case of `CCN(c1nc(-c2ccc(F)cc2)c(C#N)s1)c1c2cc(N3CCN(CC(=O)N4CC(O)C4)[C@@H](C(F)(F)F)C3)cc(F)c2nn1CC` [Compound S-0135B, (R)-2-(ethyl (2-ethyl-7-fluoro-5-(4-(2-(3-hydroxyazetidin-1-yl)-2-oxoethyl)-3-(trifluoromethyl)piperazin-1-yl)-2H-indazol-3-yl)amino)-4-(4-fluorophenyl)thiazole-5-carbonitrile], the IC50 [1] is reported as 167 nM.

In the case of `CCc1oc2ncc(N3CCN(CC(=O)N4CC(O)C4)CC3)cc2c1N(C)c1nc(-c2ccc(F)cc2)c(C#N)s1` [Compound S-0045, 2-((2-ethyl-5-(4-(2-(3-hydroxyazetidin-1-yl)-2-oxoethyl)piperazin-1-yl)furo[2,3-b]pyridin-3-yl)(methyl)amino)-4-(4-fluorophenyl)thiazole-5-carbonitrile], the IC50 [2] is reported as 261 nM, the “CYP3A4 TDI % @ 10 μM” value [3] is reported as 2.68% and the “time-dependent inhibition” value [3] is reported as “no time-dependent inhibition on CYP3A4”.

Work on `CCc1nn2ccc(N3CCN(CC(=O)N4CC(O)C4)CC3)nc2c1N(CC)c1nc(-c2ccc(F)cc2)c(C#N)s1` [Compound S-0082, 2-(ethyl(2-ethyl-5-(4-(2-(3-hydroxyazetidin-1-yl)-2-oxoethyl)piperazin-1-yl)pyrazolo[1,5-a]pyrimidin-3-yl)amino)-4-(4-fluorophenyl)thiazole-5-carbonitrile] yielded an IC50 [2] of 20 nM.

`CC(C)n1nc2c(F)cc(N3CCN(CC(=O)N4CC(O)C4)CC3)cc2c1N(C)c1nc(-c2ccc(F)cc2)c(C#N)s1` [Compound S-0125, 2-((7-fluoro-5-(4-(2-(3-hydroxyazetidin-1-yl)-2-oxoethyl)piperazin-1-yl)-2-isopropyl-2H-indazol-3-yl)(methyl)amino)-4-(4-fluorophenyl)thiazole-5-carbonitrile] showed an IC50 [2] of 178 nM.

Compound `CCN(c1nc(-c2ccc(F)c(F)c2)c(C#N)s1)c1c2cc(N3CCN(CC(=O)N4CC(O)C4)CC3)cc(F)c2nn1CC` [Compound S-0123, 4-(3,4-difluorophenyl)-2-(ethyl(2-ethyl-7-fluoro-5-(4-(2-(3-hydroxyazetidin-1-yl)-2-oxoethyl)piperazin-1-yl)-2H-indazol-3-yl)amino)thiazole-5-carbonitrile] has an IC50 [2] of 32 nM.

Compound `CCc1nn2ccc(N3CCN(CC(=O)N4CC(C)(O)C4)CC3)nc2c1N(C)c1nc(-c2ccc(F)cc2)c(C#N)s1` [Compound S-0120, 2-((2-ethyl-5-(4-(2-(3-hydroxy-3-methylazetidin-1-yl)-2-oxoethyl)piperazin-1-yl)pyrazolo[1,5-a]pyrimidin-3-yl)(methyl)amino)-4-(4-fluorophenyl)thiazole-5-carbonitrile] has an IC50 [2] of 41 nM.

`CCc1oc2cnc(N3CCN(CC(=O)N4CC(O)C4)CC3)cc2c1N(C)c1nc(-c2ccc(F)cc2)c(C#N)s1` [Compound S-0046, 2-((2-ethyl-5-(4-(2-(3-hydroxyazetidin-1-yl)-2-oxoethyl)piperazin-1-yl)furo[2,3-c]pyridin-3-yl)(methyl)amino)-4-(4-fluorophenyl)thiazole-5-carbonitrile] was tested, and the IC50 [2] was over 10000 nM, the “CYP3A4 TDI % @ 10 μM” value [3] was 10.38% and the “time-dependent inhibition” value [3] was “no time-dependent inhibition on CYP3A4”.

In the case of `CCc1oc2c(F)cc(N3CCN(CC(=O)N4CC(O)C4)CC3)cc2c1N(C)c1nc(-c2ccc(F)cc2)c(C#N)s1` [Compound S-0024, 2-((2-ethyl-7-fluoro-5-(4-(2-(3-hydroxyazetidin-1-yl)-2-oxoethyl)piperazin-1-yl)benzofuran-3-yl)(methyl)amino)-4-(4-fluorophenyl)thiazole-5-carbonitrile], the IC50 [2] is reported as 188 nM, the “CYP3A4 TDI % @ 10 μM” value [3] is reported as 4.8% and the “time-dependent inhibition” value [3] is reported as “no time-dependent inhibition on CYP3A4”.

`CCn1nc2c(F)cc(N3CCN(CC(=O)N4CC(O)C4)CC3)cc2c1N(C)c1ccc(C#N)c(-c2ccc(F)cc2)n1` [Compound S-0030, 6-((2-ethyl-7-fluoro-5-(4-(2-(3-hydroxyazetidin-1-yl)-2-oxoethyl)piperazin-1-yl)-2H-indazol-3-yl)(methyl)amino)-2-(4-fluorophenyl)nicotinonitrile] gave an IC50 [2] of 407 nM.
